From article PMC9112895, “Selective Inhibition of Plasmodium falciparum ATPase 6 by Artemisinins and Identification of New Classes of Inhibitors after Expression in Yeast” (Antimicrobial Agents and Chemotherapy, 2022)

What was measured:
S769N PfATP6 = biological target: T1, S769N PfATP6 (Plasmodium falciparum, UniProt Q08853, S769N); experiment: Yeast whole-cell assay, PfATP6 S769N mutant; format: cell-based; conditions: read-out: IC50 (mean ± SD)
T1 construct: expressed in transfected cells; host or cells: Saccharomyces cerevisiae K667-derived strain
T1 sequence (Q08853 1-1228 S769N): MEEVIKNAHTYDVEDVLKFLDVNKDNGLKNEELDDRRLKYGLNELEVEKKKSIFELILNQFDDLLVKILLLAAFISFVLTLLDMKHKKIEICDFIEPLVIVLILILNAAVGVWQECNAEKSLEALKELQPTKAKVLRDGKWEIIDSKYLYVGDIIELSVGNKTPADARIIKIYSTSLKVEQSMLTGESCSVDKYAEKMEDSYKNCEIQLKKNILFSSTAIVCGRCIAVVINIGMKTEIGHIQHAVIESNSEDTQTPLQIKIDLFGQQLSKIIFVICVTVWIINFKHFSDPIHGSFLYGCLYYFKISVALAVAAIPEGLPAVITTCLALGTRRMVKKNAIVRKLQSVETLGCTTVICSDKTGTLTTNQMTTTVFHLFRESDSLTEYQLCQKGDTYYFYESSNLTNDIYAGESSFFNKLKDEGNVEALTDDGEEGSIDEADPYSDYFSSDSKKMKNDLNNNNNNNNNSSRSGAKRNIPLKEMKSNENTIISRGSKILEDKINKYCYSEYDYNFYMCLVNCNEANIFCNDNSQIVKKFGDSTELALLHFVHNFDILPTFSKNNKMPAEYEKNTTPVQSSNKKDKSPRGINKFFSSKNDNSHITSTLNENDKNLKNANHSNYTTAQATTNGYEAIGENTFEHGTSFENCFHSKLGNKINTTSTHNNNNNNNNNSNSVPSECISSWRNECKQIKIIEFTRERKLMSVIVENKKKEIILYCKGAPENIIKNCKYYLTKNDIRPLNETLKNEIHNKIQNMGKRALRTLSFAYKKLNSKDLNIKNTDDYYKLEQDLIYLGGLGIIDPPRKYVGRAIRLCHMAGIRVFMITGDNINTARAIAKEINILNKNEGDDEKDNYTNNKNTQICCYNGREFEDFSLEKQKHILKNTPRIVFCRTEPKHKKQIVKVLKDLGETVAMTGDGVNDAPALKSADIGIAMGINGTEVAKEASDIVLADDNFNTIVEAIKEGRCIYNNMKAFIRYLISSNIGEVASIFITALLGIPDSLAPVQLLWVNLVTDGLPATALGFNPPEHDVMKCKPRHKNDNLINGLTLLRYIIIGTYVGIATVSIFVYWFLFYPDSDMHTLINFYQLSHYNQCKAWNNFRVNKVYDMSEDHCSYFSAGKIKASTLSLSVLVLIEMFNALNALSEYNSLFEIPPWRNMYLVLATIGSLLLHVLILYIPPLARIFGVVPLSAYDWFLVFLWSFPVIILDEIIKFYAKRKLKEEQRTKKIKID
Description: Yeast transformations were performed using the method described by Gietz and Schiestl ([48]), and transformants were selected by an uracil auxotrophic marker. Transformations were confirmed by colony PCR. Both K667 and K667Δpdr5::HIS were transformed with the following plasmids: pUGpd plasmid as a vector-only control (derived from pRS316 [49]); br434 plasmid (derived from pRS316 [50]) containing the SERCA1a coding region from rabbit skeletal fast-twitch muscle (pbr434-SERCA1a); and pUGpd containing the yeast-optimized coding region of PfATP6 from Plasmodium falciparum (pUGpd-PfATP6). Site-directed mutagenesis was performed on the SERCA1a coding region to produce the mutation E255L in the protein. Mutations were also introduced into the PfATP6 coding region to produce mutations L263E, A623E, and S769N and the double mutation A623E/S769N ([13]).
The screening assay used here was developed from the protocol used by Pulcini et al. ([13]). […] The optimal calcium concentration was periodically monitored and, if necessary, adjusted using a calcium concentration range of 10 to 30 mM. […] The yeast growth was estimated from the absorbance at 620 nm in a Tecan plate reader. […] The data collected were analyzed using GraphPad Prism v9.0 (GraphPad software, San Diego, CA, U.S.A).

PfATP6 = PfATP6 (Plasmodium falciparum, UniProt Q08853); experiment: cell-based; format: cell-based; design: pUGpd containing the yeast-optimized coding region of PfATP6 from Plasmodium falciparum; expressed in transfected cells; host or cells: Saccharomyces cerevisiae K667 and K667Δpdr5::HIS
Chain of PfATP6 (Q08853 whole entry): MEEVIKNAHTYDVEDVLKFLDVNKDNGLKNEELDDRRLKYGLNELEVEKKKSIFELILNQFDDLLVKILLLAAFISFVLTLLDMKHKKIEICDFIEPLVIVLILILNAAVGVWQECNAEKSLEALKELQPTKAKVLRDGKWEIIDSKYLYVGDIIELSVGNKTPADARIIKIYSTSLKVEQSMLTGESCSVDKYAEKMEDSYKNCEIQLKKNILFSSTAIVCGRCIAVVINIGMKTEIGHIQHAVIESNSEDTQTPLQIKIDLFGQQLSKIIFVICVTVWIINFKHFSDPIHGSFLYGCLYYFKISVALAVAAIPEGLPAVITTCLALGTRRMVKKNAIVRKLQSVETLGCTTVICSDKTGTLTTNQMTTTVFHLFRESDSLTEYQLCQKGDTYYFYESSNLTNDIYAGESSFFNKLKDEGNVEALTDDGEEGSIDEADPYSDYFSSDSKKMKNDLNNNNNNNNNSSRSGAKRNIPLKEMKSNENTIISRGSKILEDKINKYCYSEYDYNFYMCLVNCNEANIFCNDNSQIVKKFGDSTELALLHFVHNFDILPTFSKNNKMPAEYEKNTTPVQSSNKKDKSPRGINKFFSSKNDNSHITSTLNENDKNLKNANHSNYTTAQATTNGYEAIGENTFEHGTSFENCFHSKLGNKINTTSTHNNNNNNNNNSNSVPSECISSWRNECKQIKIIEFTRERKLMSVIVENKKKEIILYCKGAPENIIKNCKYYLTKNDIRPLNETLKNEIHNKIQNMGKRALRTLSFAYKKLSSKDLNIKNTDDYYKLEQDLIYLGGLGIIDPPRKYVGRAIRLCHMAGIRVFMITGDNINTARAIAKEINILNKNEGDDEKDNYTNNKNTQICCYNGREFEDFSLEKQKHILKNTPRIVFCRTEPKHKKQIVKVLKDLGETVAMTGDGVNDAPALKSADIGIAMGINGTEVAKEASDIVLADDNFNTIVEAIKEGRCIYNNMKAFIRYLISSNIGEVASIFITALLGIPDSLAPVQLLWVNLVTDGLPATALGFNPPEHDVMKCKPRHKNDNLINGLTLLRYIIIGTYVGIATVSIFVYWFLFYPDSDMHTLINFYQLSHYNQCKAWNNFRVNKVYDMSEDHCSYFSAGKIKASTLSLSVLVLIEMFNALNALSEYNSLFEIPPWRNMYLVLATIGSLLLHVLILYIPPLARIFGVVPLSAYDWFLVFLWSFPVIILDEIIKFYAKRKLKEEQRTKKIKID
Description: The screening assay used here was developed from the protocol used by Pulcini et al. ([13]). A single colony of the yeast strain to be screened was picked and grown in 5 mL of selective medium until stationary phase was reached. The culture was diluted 100-fold in ampicillin-supplemented yeast extract-peptone-dextrose (YPD) medium to an OD at 620 nm (OD620) equivalent to that of lag phase. YPD medium was supplemented with an appropriate concentration of calcium, depending on the transformed strain. […] The optimal calcium concentration was periodically monitored and, if necessary, adjusted using a calcium concentration range of 10 to 30 mM. A final volume of 200 μL of the yeast culture was added to each well of a 96-well plate, with 5 technical replicates included per inhibitor. All inhibitors were dissolved in dimethyl sulfoxide (DMSO) unless otherwise stated. […] The 96-well plates were incubated at 30°C for 42 h. The yeast growth was estimated from the absorbance at 620 nm in a Tecan plate reader. Growth was normalized with the no-drug control to present data as percent growth. The data collected were analyzed using GraphPad Prism v9.0 (GraphPad software, San Diego, CA, U.S.A).

For `CC(=O)C1=C(O)[C@@H]2[C@H]3c4c[nH]c5cccc(c45)C[C@H]3C(C)(C)N2C1=O` [CPA, cyclopiazonic acid], the IC50 (S769N PfATP6) was 6.49 µM, the “approximate IC10” value (PfATP6; fitness cost assays, drug pressure) was roughly 5 µM and the IC80 (PfATP6; read-out: approximate yeast IC80) was roughly 5 µM.
